For ten compounds, Ki results are on record in patent publication US20080214542A1, “Arylpiperazine Derivatives and their Use as Selective Dopamine D3 Receptor Ligands” (BIOPROJET, priority 2004, published 2008).

Molecules are shown by their SMILES. Counter-ions that a name gives are not always drawn.

Chain of human dopamine D3 receptor (hD3) (P35462 whole entry): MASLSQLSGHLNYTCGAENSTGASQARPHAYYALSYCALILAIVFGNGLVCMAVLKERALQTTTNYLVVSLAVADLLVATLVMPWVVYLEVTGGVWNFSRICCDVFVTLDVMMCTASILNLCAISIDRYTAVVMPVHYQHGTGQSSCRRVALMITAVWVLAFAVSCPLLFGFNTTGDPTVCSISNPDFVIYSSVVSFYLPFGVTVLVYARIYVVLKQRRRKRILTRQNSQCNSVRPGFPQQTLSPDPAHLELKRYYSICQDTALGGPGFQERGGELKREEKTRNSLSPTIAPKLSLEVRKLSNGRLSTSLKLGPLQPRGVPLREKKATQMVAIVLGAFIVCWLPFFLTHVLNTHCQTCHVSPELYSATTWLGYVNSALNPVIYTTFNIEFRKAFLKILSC

The target of the first assay is human dopamine D3 receptor (hD3) (Homo sapiens, UniProt P35462). Briefly: Binding of [3H]spiperone to membranes of CHO cells transfected with the human dopamine D3 receptor. Conditions: binding of [3H]spiperone (0.5 to 2 nM), hD3-transfected CHO cell membranes, 60 minutes at ambient temperature; read-out: hD3 Ki. Here is the method:
Biological Results: Determination of the Affinity of the Compounds for the Human Dopamine D3 Receptor
Binding of [^3H]spiperone:
CHO cells were transfected by the gene coding for the human dopamine D3 receptor (hD3). The binding of [^3H]spiperone (0.5 to 2 nM) takes place in the presence of 5 to 10 μg of membranous proteins in a medium containing 120 mM NaCl, 5 mM KCl, and 50 mM Tris HCL pH 7.4; an incubation of 60 minutes at ambient temperature is necessary. The non-specific binding is estimated in the presence of 5 μM of haloperidol. The non-transfected cells are devoid of any binding activity.
One may read the Ki as a dissociation constant, usually derived from enzyme kinetics or from competition with a known ligand. As for `COc1ccc2c(c1)CN(C(=O)CCCCCN1CCN(c3cccc(C(F)(F)F)c3)CC1)C2` [Example 1, 1-(5-methoxyisoindolin-2-yl)-6-[4-(3-trifluoromethylphenyl)piperazin-1-yl]hexan-1-one], the Ki was found to be 0.9 nM.

Turning to `N#Cc1ccc2c(c1)CN(C(=O)CCCCCN1CCN(c3cccc(C(F)(F)F)c3)CC1)C2` [Example 3, 1-(5-cyanoisoindolin-2-yl)-6-[4-(3-trifluoromethylphenyl)piperazin-1-yl]-hexan-1-one hydrochloride], the Ki turned out to be 2.6 nM.

For `O=C(CCCCCN1CCN(c2cccc(C(F)(F)F)c2)CC1)N1Cc2ccc(F)cc2C1` [Example 7, 1-(5-fluoroisoindolin-2-yl)-6-[4-(3-trifluoromethylphenyl)piperazin-1-yl]hexan-1-one], the Ki came to 1.05 nM.

Turning to `O=C(CCCCCN1CCN(c2cccc(C(F)(F)F)c2)CC1)N1Cc2cc3c(cc2C1)OCO3` [Example 10, 1-(6,7-dihydro-5H-[1,3]dioxolo[4,5-f]isoindol-6-yl)-6-[4-(3-trifluoromethylphenyl)piperazin-1-yl]hexan-1-one], the Ki worked out at 1.17 nM.

Take `COC(=O)c1ccc2c(c1)CN(C(=O)CCCCCN1CCN(c3cccc(C(F)(F)F)c3)CC1)C2` [Example 12, 1-(5-methoxycarbonylisoindolin-2-yl)-6-[4-(3-trifluoromethylphenyl)piperazin-1-yl]hexan-1-one hydrochloride]: the Ki was 0.85 nM.

Regarding `O=C(CCCCCN1CCN(c2cccc(C(F)(F)F)c2)CC1)N1Cc2ccc(OCCCN3CCCCC3)cc2C1` [Example 24, 1-[5-(3-piperidinopropoxy)isoindolin-2-yl]-6-[4-(3-trifluoromethylphenyl)piperazin-1-yl]hexan-1-one], the inhibition constant (Ki) was 1.21 nM.

In the case of `O=C(CCCCCN1CCN(c2cccc3c2CCCC3)CC1)N1Cc2ccccc2C1` [Example 38, 1-isoindolin-2-yl-6-[4-(5,6,7,8-tetrahydro-naphthalen-1-yl)piperazin-1-yl]hexan-1-one], the Ki came out at 0.84 nM.

`O=C(CCCCCN1CC=C(c2cccc(C(F)(F)F)c2)CC1)N1Cc2ccccc2C1` [Example 50, 1-isoindolin-2-yl-6-[4-(3-trifluoromethylphenyl)-3,6-dihydro-2H-pyridin-1-yl]hexan-1-one]: the inhibition constant (Ki) was 0.93 nM.

Take `O=C(CCCCCN1CCC(c2cccc(C(F)(F)F)c2)CC1)N1Cc2ccccc2C1` [Example 51, 1-isoindolin-2-yl-6-[4-(3-trifluoromethyl-phenyl)-piperidin-1-yl]hexan-1-one]: the inhibition constant Ki came out at 19.7 nM.

The assay is the same for the next values; noted with them: comparative example, affinity for the dopamine D3 receptor; read-out: Ki.
With `O=C(CCCCCN1CCN(c2cccc(F)c2)CC1)N1Cc2ccccc2C1` [reference compound], the Ki came to 321 nM.
